Measured values from paper PMC11755529, “Chlorpyrifos Acts as a Positive Modulator and an Agonist of N-Methyl-D-Aspartate (NMDA) Receptors: A Novel Mechanism of Chlorpyrifos-Induced Neurotoxicity” (Journal of Xenobiotics, 2025).
Where two headings read alike, the source gives them in different places.

Key:
[1] = biological target: T1, GluN1-1a/GluN2A NMDAR (Rattus norvegicus, UniProt P35439+Q00959); assay: TEVC electrophysiology of Xenopus oocytes expressing GluN1-1a/GluN2A; format: cell-based
T1 construct: expressed in transfected cells; host or cells: Xenopus laevis oocytes, injected with cRNA or plasmid DNA (pRK7 or pBluescript SK(-))
Protocol: (§1) Ovaries of mature female Xenopus laevis were supplied by the European Xenopus Resource Centre (University of Portsmouth, Portsmouth, UK). Upon receipt, oocytes were first separated with 1 mg/mL collagenase (Type 1A from Clostridium histolyticum; Sigma, Poole, UK) in Ca^2+-free Barth’s gentamicin–theophylline–pyruvate (GTP) solution (96 mM NaCl, 2 mM KCl, 1 mM MgCl2, 5 mM HEPES, 2.5 mM pyruvic acid, 0.5 mM theophylline, 50 μg/mL gentamicin, pH 7.5) on a shaker for approximately 45 min at room temperature. Oocytes were then rinsed with Ca^2+-free GTP solution six to eight times until a clear solution was obtained and incubated in normal Barth’s GTP solution (Ca^2+-free GTP with inclusion of 1.8 mM CaCl2) at ~4 °C for at least half an hour prior to microinjection.
(§2) Healthy oocytes at developmental stages IV and V were injected with 50 nL of cRNA (into the cytoplasm) or plasmid DNA (into the nucleus) at a concentration of ~100 ng/μL using a Nanolitre 2010 Injector (World Precision Instruments, Hitchin, UK). cRNA or DNA plasmids encoding the rat NMDAR subunits GluN1-1a and GluN2A or GluN1-1a and GluN2B were mixed at ratios of 1:1 (by weight) for injection. The cRNA was synthesized from linearized plasmid DNA (pRK7 or pBluscript SK(−)) containing the GluN-encoding genes using an Invitrogen mMessage mMachine kit (Thermo Fisher Scientific, Loughborough, UK). Injected oocytes were kept in normal Barth’s GTP solution at 19 °C for two to three days for expression of NMDAR subunits before recordings.
(§3) TEVC electrophysiology was used to assess the direct effects of CPF on NMDARs containing GluN1-1a and GluN2A or GluN1-1a and GluN2B subunits expressed in Xenopus oocytes. Pulled borosilicate glass capillaries (GC150TF-10, Harvard Apparatus, Cambridge, UK) (resistances 0.5–2 MΩ) were filled with 3 M KCl and used to impale injected oocytes for recording. Injected oocytes were continuously perfused with Mg^2+-free Xenopus Ringer solution (95 mM NaCl, 2 mM KCl, 2 mM CaCl2, 5 mM HEPES, pH 7.5) at a flow rate of 5 mL/min, with test compounds applied using a Valvelink 8 gravity-fed perfusion system (Automate Scientific, Berkeley, CA, USA). Recordings were performed at 20–25 °C and oocytes were clamped at −75 mV holding potential in all experiments. Output current responses were transferred to a PC via an analogue-to-digital (A/D) converter (National Instruments PCI-6014, Austin, TX, USA) and recorded in WinEDR V3.2.7 software (John Dempster, Strathclyde Electrophysiology Software, Strathclyde Institute of Pharmacy and Biomedical Sciences, University of Strathclyde, Strathclyde, UK). Current changes in response to NMDA/glycine when applied with CPF were normalized to the control current without CPF.
(§4) Results were expressed as means ± standard error of the mean (SEM). Statistical analysis was undertaken between concentrations using an independent samples Kruskal–Wallis test across cell culture conditions using IBM SPSS statistical software (version 26.0). […] EC50 and maximum response values were obtained using non-linear regression by fitting a four-parametric logistic equation to concentration–response plots in GraphPad Prism 10 (GraphPad Software Inc., La Jolla, CA, USA):(1) Y=Min+Max−Min/10^LogEC50−XS+1 where Y is the response to the agonist, X is the log10 concentration of the agonist, EC50 is the concentration of agonist that produces a half-maximum activation response, and S is the Hill slope. EC50s and maximum responses were compared for significant differences using an extra sum of squares F-test in GraphPad Prism 10.

[2] = biological target: T2, GluN1-1a/GluN2B NMDAR (Rattus norvegicus, UniProt P35439+Q00960); assay: TEVC electrophysiology of Xenopus oocytes expressing GluN1-1a/GluN2B; format: cell-based
T2 construct: expressed in transfected cells; host or cells: Xenopus laevis oocytes, injected with cRNA or plasmid DNA (pRK7 or pBluescript SK(-))
Protocol: as §1, §2, §3, §4

[3] = test system: 4-week differentiated ReNcell CX cells; assay: Three-color fluorescence (FDA/PI) live, dead and apoptotic cell staining; format: cell-based, human; conditions: 24 h
Protocol: (§5) The human neural progenitor ReNcell CX cell line (Merck Millipore, Watford, UK) is a neural stem cell line derived from the developing human fetal brain cortex ([…]) at 14 weeks of gestational age. The ReNcell CX cell line was expanded on laminin-coated flasks (20 μg/mL; Sigma-Aldrich, Poole, UK) in ReNcell Neural Stem Cell (NSC) Maintenance Medium (Merck Millipore, Watford, UK) containing fresh EGF (20 ng/mL; Merck Millipore, Watford, UK) and FGF-b (20 ng/mL; Merck Millipore, Watford, UK). Cultures were incubated at 37 °C in a 95% humidified atmosphere of 5% CO2. ReNcell CX neural progenitor cells were differentiated into a co-culture of neurons, astrocytes, and oligodendrocytes by replacing the complete ReNcell CX medium with EGF- and FGF-b-free medium; with the differentiation medium refreshed every 2 days throughout the 4-week differentiation period.
(§6) A three-color fluorescence assay was performed as described by Kim et al.. Non-fluorescent fluorescein diacetate (FDA) permeates into active and intact cells and is hydrolyzed by intracellular esterases into a highly fluorescent green fluorescein when illuminated with a fluorescein isothiocyanate (FITC; blue) excitation filter set (emission wavelength […]). Propidium iodide (PI) is a nucleic acid dye that cannot permeate intact cell membranes and selectively stains the nuclei of dead cells or cells in late apoptotic stages. Stained nuclei omit red fluorescence under rhodamine (green) excitation (emission wavelength 650 nm). Live–dead cell assays followed the protocol described by Jones and Senft. The cells were observed using a Nikon TS100 inverted microscope (Nikon Europe B.V., Amstelveen, The Netherlands) with incident fluorescence optics. Images were captured at 200× magnification and digitalized with a Moticam 2300 camera (Roper Scientific Inc., Duluth, GA, USA; resolution 3 MP).
(§7) Live/dead cell staining was analyzed quantitatively. The number of PI-stained nuclei was counted manually using the cell counting option in the ImageJ software (V2 Fiji-win64, University of Nottingham).

[4] = as above; format: cell-based, human; conditions: human, 14 μM CPF, control 96.4%, p < 0.001, read-out: cell viability (live cells)
Protocol: as §5, §6, §7

[5] = cited from earlier work
[6] = 10 μM CPF applied directly, −75 mV

T2 sequence (Q00960 27-1482, other chains not shown): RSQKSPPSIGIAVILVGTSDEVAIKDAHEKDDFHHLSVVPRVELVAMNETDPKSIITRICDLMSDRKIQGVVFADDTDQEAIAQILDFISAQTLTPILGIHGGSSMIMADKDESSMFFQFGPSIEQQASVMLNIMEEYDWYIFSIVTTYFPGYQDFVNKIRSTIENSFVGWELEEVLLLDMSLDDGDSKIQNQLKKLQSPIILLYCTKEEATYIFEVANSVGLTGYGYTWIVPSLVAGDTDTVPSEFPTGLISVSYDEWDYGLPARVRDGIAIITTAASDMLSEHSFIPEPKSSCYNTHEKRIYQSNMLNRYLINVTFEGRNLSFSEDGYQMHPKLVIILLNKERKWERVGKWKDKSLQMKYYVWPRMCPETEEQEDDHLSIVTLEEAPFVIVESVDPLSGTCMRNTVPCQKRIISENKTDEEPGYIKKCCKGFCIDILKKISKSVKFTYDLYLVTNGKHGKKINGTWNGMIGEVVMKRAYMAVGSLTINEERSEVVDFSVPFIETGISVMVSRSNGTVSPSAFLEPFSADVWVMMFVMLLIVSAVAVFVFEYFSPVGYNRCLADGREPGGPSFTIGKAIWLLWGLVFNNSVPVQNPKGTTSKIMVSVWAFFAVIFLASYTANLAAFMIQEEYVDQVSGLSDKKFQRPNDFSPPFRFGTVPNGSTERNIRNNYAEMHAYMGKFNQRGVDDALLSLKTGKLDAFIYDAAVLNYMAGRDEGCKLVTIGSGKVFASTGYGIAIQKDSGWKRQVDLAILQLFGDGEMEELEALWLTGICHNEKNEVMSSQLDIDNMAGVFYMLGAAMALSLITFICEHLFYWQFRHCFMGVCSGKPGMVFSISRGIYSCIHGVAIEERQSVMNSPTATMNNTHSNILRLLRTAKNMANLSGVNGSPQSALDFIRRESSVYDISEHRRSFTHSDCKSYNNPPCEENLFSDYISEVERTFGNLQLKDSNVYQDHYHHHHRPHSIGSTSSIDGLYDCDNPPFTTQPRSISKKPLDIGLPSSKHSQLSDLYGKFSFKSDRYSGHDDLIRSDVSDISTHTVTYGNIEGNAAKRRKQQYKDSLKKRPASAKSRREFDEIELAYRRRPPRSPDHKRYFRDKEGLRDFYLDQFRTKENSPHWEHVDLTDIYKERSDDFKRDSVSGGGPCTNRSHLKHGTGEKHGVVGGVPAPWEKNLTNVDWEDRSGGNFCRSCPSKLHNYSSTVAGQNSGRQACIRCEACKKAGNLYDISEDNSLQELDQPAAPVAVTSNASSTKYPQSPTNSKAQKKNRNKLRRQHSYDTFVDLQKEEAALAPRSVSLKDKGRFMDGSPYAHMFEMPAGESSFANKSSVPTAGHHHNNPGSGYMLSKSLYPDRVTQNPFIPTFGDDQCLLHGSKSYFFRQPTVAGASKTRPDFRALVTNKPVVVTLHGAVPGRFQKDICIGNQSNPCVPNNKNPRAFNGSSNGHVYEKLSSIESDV
T1 sequence (Q00959 20-1464 limits assumed, other chains not shown): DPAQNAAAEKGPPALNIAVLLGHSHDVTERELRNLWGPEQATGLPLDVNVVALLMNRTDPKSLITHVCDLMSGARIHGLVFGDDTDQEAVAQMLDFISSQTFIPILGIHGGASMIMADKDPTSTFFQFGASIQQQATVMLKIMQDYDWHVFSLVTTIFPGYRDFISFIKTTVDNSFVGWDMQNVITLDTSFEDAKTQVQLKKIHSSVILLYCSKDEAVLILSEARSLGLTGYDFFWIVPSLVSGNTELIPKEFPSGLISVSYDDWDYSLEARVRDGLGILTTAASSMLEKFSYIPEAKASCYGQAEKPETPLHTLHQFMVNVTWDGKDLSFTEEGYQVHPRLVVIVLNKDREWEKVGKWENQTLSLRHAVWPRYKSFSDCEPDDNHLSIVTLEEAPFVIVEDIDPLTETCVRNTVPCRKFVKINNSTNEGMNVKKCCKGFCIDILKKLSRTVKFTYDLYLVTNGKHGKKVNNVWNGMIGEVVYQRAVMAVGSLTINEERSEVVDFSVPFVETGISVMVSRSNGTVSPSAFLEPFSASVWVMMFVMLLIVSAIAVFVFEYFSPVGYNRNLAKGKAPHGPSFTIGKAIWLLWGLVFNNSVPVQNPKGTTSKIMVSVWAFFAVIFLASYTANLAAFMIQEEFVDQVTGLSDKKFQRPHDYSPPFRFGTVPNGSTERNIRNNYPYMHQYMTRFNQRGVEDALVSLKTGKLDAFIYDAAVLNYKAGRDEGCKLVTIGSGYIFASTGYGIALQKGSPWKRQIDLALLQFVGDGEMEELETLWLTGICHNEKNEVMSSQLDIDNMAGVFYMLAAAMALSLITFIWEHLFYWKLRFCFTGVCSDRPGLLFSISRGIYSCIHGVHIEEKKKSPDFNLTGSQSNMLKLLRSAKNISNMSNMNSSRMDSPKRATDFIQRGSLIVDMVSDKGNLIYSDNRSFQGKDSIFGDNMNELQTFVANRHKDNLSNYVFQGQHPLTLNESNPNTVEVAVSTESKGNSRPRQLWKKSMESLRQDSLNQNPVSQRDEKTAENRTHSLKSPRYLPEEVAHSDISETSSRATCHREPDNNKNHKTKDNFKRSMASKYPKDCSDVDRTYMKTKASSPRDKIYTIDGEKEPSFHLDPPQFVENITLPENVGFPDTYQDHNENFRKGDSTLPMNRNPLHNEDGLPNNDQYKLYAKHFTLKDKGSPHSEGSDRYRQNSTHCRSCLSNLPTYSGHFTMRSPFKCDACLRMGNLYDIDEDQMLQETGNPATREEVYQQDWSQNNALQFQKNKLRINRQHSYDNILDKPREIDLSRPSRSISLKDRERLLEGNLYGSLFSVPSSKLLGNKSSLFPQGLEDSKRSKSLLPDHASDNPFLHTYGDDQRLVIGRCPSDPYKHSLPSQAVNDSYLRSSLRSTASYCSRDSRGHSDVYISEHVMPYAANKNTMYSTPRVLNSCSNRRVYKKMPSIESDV

Compound: CN[C@H](CC(=O)O)C(=O)O [NMDA, N-methyl-D-aspartate]
- maximum response (percentage of the response to 1 mM NMDA) ([1]; 10 μM glycine, absence of CPF): 102%
- EC50 ([1]; 10 μM glycine, absence of CPF, n = 5, read-out: NMDA EC50): 57.9 µM
- maximum response (percentage of the response to 1 mM NMDA) ([2]; 10 μM glycine, absence of CPF): 103%
- EC50 ([2]; 10 μM glycine, absence of CPF, n = 6, read-out: NMDA EC50): 70 µM

Compound: CCOP(=S)(OCC)Oc1nc(Cl)c(Cl)cc1Cl [CPF, O,O-diethyl O-(3,5,6-trichloropyridin-2-yl) phosphorothioate]
- cells transitioned to apoptosis ([3]; 14 μM CPF): 18.7%
- dead cells ([3]; 14 μM CPF): 3.91%
- viability at 24 h, 14 μM [4]: 71.4%
- EC50 [1]: ~0.04 µM
- enhancement of current evoked by 10 μM glycine ([1]; 1 μM CPF co-applied with 10 μM glycine, n = 3, p < 0.05): ~ 1.7 fold
- direct activation by CPF alone [1, 6]: resulted in NMDAR-mediated currents
- no observed adverse effect level (NOAEL), as concentration ([5]; conversion of 100 μg/kg/day as printed): ≈ 285 nM
- no observed adverse effect level (NOAEL) ([5]; set by European Food Safety Authority): 100 µg/kg/day
- EC50 [2]: ~0.055 µM
- direct activation by CPF alone [2, 6]: resulted in NMDAR-mediated currents
- enhancement of current evoked by 100 μM NMDA ([2]; 10 μM CPF co-applied with 100 μM NMDA, n = 5, p < 0.05): ~ 8.2 fold

Compound: C[C@]12N[C@H](Cc3ccccc31)c1ccccc12 [MK-801, reference compound]
- antagonism of CPF-induced potentiation of NMDA/glycine-evoked current ([1]; 10 μM MK-801 with 1 μM CPF, 10 μM NMDA, 10 μM Gly, −75 mV): completely blocked

Compound: CC(C(O)c1ccc(O)cc1)N1CCC(Cc2ccccc2)CC1 (stereo not drawn) [IFN, ifenprodil, reference compound]
- effect on CPF-induced decrease in cell viability ([3]; 25 μM IFN co-administered with 14 μM CPF, p < 0.001): attenuated the CPF-induced decrease in ReNcell CX cell viability
- antagonism of CPF-induced potentiation of NMDA/glycine-evoked current ([2]; 100 μM IFN with 1 μM CPF, 10 μM NMDA, 10 μM Gly, −75 mV): completely blocked
